Measurements: patent US12102658B2, “Tripeptide propylene oxide derivative and preparation method and application thereof” (SHENZHEN JIKANG PHARMACEUTICAL TECHNOLOGY CO., LTD, priority 2019, dated 2024)
pIC50: −log10 of the molar value. Where two headings read alike, the source gives them in different places.

What was measured:
[1] = test system: U266B1; experiment: Cell strain inhibition activity (Promega single solution cell proliferation test kit), U266; format: cell-based; details: Homo sapiens, U-266; U266B1 cells, 24 h incubation with drug; read-out: IC50 concentration (nM) of the drugs to cytotoxicity, U266B1
Description: (§1) The test solution used in the present invention is a single solution cell proliferation test kit from Promega company; and the cells used are U266 and RPMI8226. The experimental system is 110 μL, containing 90 μL of cell suspension, 10 μL of test solution, and 10 μL of drug (inhibitor). The final concentration is 4.54×10^−8 M-1.77×10^−9 M, the last concentration is 0 M, the actual preparation concentration is 5×10^−7 M-1.95×10^−8 M, and the last concentration is 0 M. The specific experiment process is as follows:
(§2) After the cells are counted separately, dilution and preparation are performed so that the number of U266 is 1×10^4 cells/well, and the number of RPMI8226 is 1×10^4 cells/well.
(§3) 90 μL of cell suspension is added to each well of a 96-well fluorescence microplate, and incubated for 24 h. […] After the reaction is complete, 10 μL of test solution is added to each well and incubation is performed for 2-3 h. The absorbance is tested with a 490 nm fluorescence microplate reader (BMG LABTECH POLARstar OPTIMA Microplate Reader).
(§4) The absorbances of the products obtained under the action of the drugs of different concentrations after subtracting the substrate are calculated. The IC50 concentration (nM) of the drugs to cytotoxicity is calculated by the GraphPad Prism software.

[2] = molecular target: T1, human red blood cell 20S proteasome (Homo sapiens, UniProt P28074); experiment: Proteasome inhibition activity (chymotrypsin-like activity, Suc-LLVY-AMC fluorescent substrate); format: biochemical; details: Suc-LLVY-AMC 50 μM, 37° C.
T1 construct: human red blood cell 20S proteasome; purchased Enzo; host or cells: purified from human red blood cells
Description: The present invention uses a fluorescent polypeptide substrate Suc-Leu-Leu-Val-Tyr-AMC (abbreviated as Suc-LLVY-AMC, Suc stands for succinyl group, AMC stands for 7-amide-4-methylcoumarin) to determine the chymotrypsin-like enzyme activity of the proteasome.
The proteasome used in the present invention is human red blood cell 20S proteasome, and the enzymes, fluorescent substrates and test buffers are all purchased from Enzo company. […]
The 20S proteasome is diluted with a buffer solution to a concentration of 2 ng/μL from 8 ng/μL, and the diluted proteasome solution is added to a 384-well fluorescence microplate, 4 μL each. […] A 360 nm/460 nm fluorescence microplate reader (BMG LABTECH POLARstar OPTIMA Microplate Reader) is used to test the fluorescence value.
The fluorescence values of the products obtained under the action of the drugs of different concentrations after subtracting the substrate are calculated. The IC50 concentration of the drug to inhibit the proteasome is calculated by the GraphPad Prism software.

[3] = test system: RPMI8226; experiment: Cell strain inhibition activity (Promega single solution cell proliferation test kit), RPMI8226; format: cell-based; details: Homo sapiens, RPMI-8226; RPMI8226 cells, 24 h incubation with drug; read-out: IC50 concentration (nM) of the drugs to cytotoxicity, RPMI8226
Description: as §1, §2, §3, §4

[4] = Primary cytotoxicity, monocytes from healthy volunteers; format: cell-based; details: human, primary blood monocytes from a healthy volunteer, 24 h incubation with drug
Description: (§5) In the present invention, blood cells from patients with multiple myeloma and blood cells from healthy volunteers are used to test the toxicity of candidate compounds. The test solution is a single solution cell proliferation test kit from Promega company. The cells used are CD138+ cells selected from the patients with multiple myeloma and monocytes from the blood of the healthy volunteers. The experimental system is 110 μL, containing 90 μL of cell suspension, 10 μL of test solution, and 10 μL of drug (inhibitor). The final concentration is 4.54×10^−8 M 1.77×10^−9 M, the last concentration is 0 M, the actual preparation concentration is 5×10^−7 M-1.95×10^−8 M, and the last concentration is 0 M. The specific experiment process is as follows:
(§6) After the cells are counted separately, dilution and preparation are performed so that the number of CD138+ cells is 1×10^4 cells/well, and the number of monocytes is 1×10^4 cells/well.
as §3, §4

[5] = test system: CD138+ cells selected from the patients with multiple myeloma; experiment: Primary cytotoxicity, CD138+ cells from patients with multiple myeloma; format: cell-based; details: Homo sapiens
Description: as §5, §6, §3, §4

[6] = Healthy volunteer 3 (first line, r4), read-out: IC50 concentration (nM) of the drugs to cytotoxicity, Healthy volunteer 3
[7] = Healthy volunteer 3 (second line, r5), read-out: IC50 concentration (nM) of the drugs to cytotoxicity, Healthy volunteer 3 (second line)
[8] = Patient 1, 24 h incubation with drug, read-out: IC50 concentration (nM) of the drugs to cytotoxicity, Patient 1
[9] = Patient 2, 24 h incubation with drug, read-out: IC50 concentration (nM) of the drugs to cytotoxicity, Patient 2

Compound	melting point [°C]	further results
COC[C@H](NC(=O)c1cc(Cl)ccc1Cl)C(=O)N[C@H](CSC)C(=O)N[C@@H](Cc1ccccc1)C(=O)[C@@]1(C)CO1 [Compound 33, N-2,5-dichlorophenyl-2-formyl-O-methyl-L-seryl-S-methyl-L-cysteinyl-L-phenylalanyl-methyloxirane]	50.7 to 52.3	
COC[C@H](NC(=O)c1cnccn1)C(=O)N[C@H](CSC)C(=O)N[C@@H](Cc1ccccc1)C(=O)[C@@]1(C)CO1 [Compound 35, N-pyrazinyl-2-formyl-O-methyl-L-seryl-S-methyl-L-cysteinyl-L-phenylalanyl-methyloxirane]	46.1 to 47.6	
COC[C@H](NC(=O)[C@@H](CSC)NC(=O)c1cc(Cl)ccc1Cl)C(=O)N[C@@H](Cc1ccccc1)C(=O)[C@@]1(C)CO1 [Compound 39, N-2,5-dichlorophenyl-2-formyl-S-methyl-L-cysteinyl-O-methyl-L-seryl-L-phenylalanyl-methyloxirane]	51.2 to 52.7	
COC[C@H](NC(=O)[C@@H](CSC)NC(=O)c1cnccn1)C(=O)N[C@@H](Cc1ccccc1)C(=O)[C@@]1(C)CO1 [Compound 41, N-pyrazinyl-2-formyl-S-methyl-L-cysteinyl-O-methyl-L-seryl-L-phenylalanyl-methyloxirane]	49.7 to 51.2	IC50 [3]: 55.3 nM; IC50 [1]: 160 nM
CSC[C@@H](NC(=O)c1cc(Cl)ccc1Cl)C(=O)N[C@H](CSC)C(=O)N[C@@H](CC(C)C)C(=O)[C@@]1(C)CO1 [Compound 42, N-2,5-dichlorophenyl-2-formyl-S-methyl-L-cysteinyl-S-methyl-L-cysteinyl-L-leucyl-methyloxirane]	163.1 to 164.5	
CSC[C@@H](NC(=O)c1cnc(C)s1)C(=O)N[C@H](CSC)C(=O)N[C@@H](CC(C)C)C(=O)[C@@]1(C)CO1 [Compound 45, N-2-methylthiazolyl-5-formyl-S-methyl-L-cysteinyl-S-methyl-L-cysteinyl-L-leucyl-methyloxirane]	150 to 151	
CSC[C@@H](NC(=O)c1cc(Cl)ccc1Cl)C(=O)N[C@H](CSC)C(=O)N[C@@H](Cc1ccccc1)C(=O)[C@@]1(C)CO1 [Compound 46, N-2,5-dichlorophenyl-2-formyl-S-methyl-L-cysteinyl-S-methyl-L-cysteinyl-L-phenylalanyl-methyloxirane]	150 to 151	
CSC[C@@H](NC(=O)c1cc(C)on1)C(=O)N[C@H](CSC)C(=O)N[C@@H](Cc1ccccc1)C(=O)[C@@]1(C)CO1 [Compound 47, N-5-methylisoxazolyl-3-formyl-S-methyl-L-cysteinyl-S-methyl-L-cysteinyl-L-phenylalanyl-methyloxirane]	149 to 150	
CSC[C@@H](NC(=O)c1cnccn1)C(=O)N[C@H](CSC)C(=O)N[C@@H](Cc1ccccc1)C(=O)[C@@]1(C)CO1 [Compound 48, N-pyrazinyl-2-formyl-S-methyl-L-cysteinyl-S-methyl-L-cysteinyl-L-phenylalanyl-methyloxirane]		pIC50 [2]: < 5.70
CSC[C@@H](NC(=O)c1cnc(C)s1)C(=O)N[C@H](CSC)C(=O)N[C@@H](Cc1ccccc1)C(=O)[C@@]1(C)CO1 [Compound 49, N-2-methylthiazolyl-5-formyl-S-methyl-L-cysteinyl-S-methyl-L-cysteinyl-L-phenylalanyl-methyloxirane]	73 to 74	
COC[C@H](NC(=O)c1cc(C)on1)C(=O)NCC(=O)N[C@@H](Cc1ccccc1)C(=O)[C@@]1(C)CO1 [Compound 51, N-5-methylisoxazolyl-3-formyl-O-methyl-L-seryl-glycyl-L-phenylalanyl-methyloxirane]	54 to 55	IC50 [5, 8]: 36 nM; IC50 [5, 9]: 52.6 nM
COC[C@H](NC(=O)CNC(=O)c1cc(C)on1)C(=O)N[C@@H](CC(C)C)C(=O)[C@@]1(C)CO1 [Compound 52, N-5-methylisoxazolyl-3-formyl-glycyl-O-methyl-L-seryl-L-leucyl-methyloxirane]		IC50 [3]: > 100 nM
CSC[C@@H](NC(=O)c1cnc(C)s1)C(=O)NCC(=O)N[C@@H](CC(C)C)C(=O)[C@@]1(C)CO1 [Compound 56, N-2-methylthiazolyl-5-formyl-S-methyl-L-cysteinyl-glycyl-L-leucyl-methyloxirane]		IC50 [3]: > 100 nM
COC[C@H](NC(=O)c1cnc(C)s1)C(=O)N[C@@H](COC)C(=O)N[C@@H](Cc1ccccc1)C(=O)[C@@]1(C)CO1 [Oprozomib, reference compound]		IC50 at 24 h [4, 6]: 598 nM; IC50 at 24 h [4, 7]: 807 nM; IC50 [5, 8]: 53 nM; IC50 [5, 9]: 70.9 nM

Further lines, with some results ahead:

melting point [°C]	Compound	further results
70.2 to 72.7	COC[C@H](NC(=O)c1cc(C)on1)C(=O)N[C@H](CSC)C(=O)N[C@@H](CC(C)C)C(=O)[C@@]1(C)CO1 [Compound 31, N-5-methylisoxazolyl-3-formyl-O-methyl-L-seryl-S-methyl-L-cysteinyl-L-leucyl-methyloxirane]	
50 to 51	COC[C@H](NC(=O)c1cnccn1)C(=O)N[C@H](CSC)C(=O)N[C@@H](CC(C)C)C(=O)[C@@]1(C)CO1 [Compound 32, N-pyrazinyl-2-formyl-O-methyl-L-seryl-S-methyl-L-cysteinyl-L-leucyl-methyloxirane]	IC50 [1]: 13700 nM
59.8 to 60.3	COC[C@H](NC(=O)[C@@H](CSC)NC(=O)c1cc(Cl)ccc1Cl)C(=O)N[C@@H](CC(C)C)C(=O)[C@@]1(C)CO1 [Compound 36, N-2,5-dichlorophenyl-2-formyl-S-methyl-L-cysteinyl-O-methyl-L-seryl-L-leucyl-methyloxirane]	
49.5 to 51.8	COC[C@H](NC(=O)[C@@H](CSC)NC(=O)c1cc(C)on1)C(=O)N[C@@H](CC(C)C)C(=O)[C@@]1(C)CO1 [Compound 37, N-5-methylisoxazolyl-3-formyl-S-methyl-L-cysteinyl-O-methyl-L-seryl-L-leucyl-methyloxirane]	
59.6 to 61.2	COC[C@H](NC(=O)[C@@H](CSC)NC(=O)c1cnccn1)C(=O)N[C@@H](CC(C)C)C(=O)[C@@]1(C)CO1 [Compound 38, N-pyrazinyl-2-formyl-S-methyl-L-cysteinyl-O-methyl-L-seryl-L-leucyl-methyloxirane]	pIC50 [2]: < 5.70
47.7 to 49.1	COC[C@H](NC(=O)c1cc(C)on1)C(=O)NCC(=O)N[C@@H](CC(C)C)C(=O)[C@@]1(C)CO1 [Compound 50, N-5-methylisoxazolyl-3-formyl-O-methyl-L-seryl-glycyl-L-leucyl-methyloxirane]	IC50 at 24 h [4, 6]: > 2000 nM; IC50 at 24 h [4, 7]: > 2000 nM; IC50 [5, 8]: 10 nM; IC50 [5, 9]: 11 nM
58.4 to 59.8	CSC[C@@H](NC(=O)c1cc(C)on1)C(=O)NCC(=O)N[C@@H](CC(C)C)C(=O)[C@@]1(C)CO1 [Compound 54, N-5-methylisoxazolyl-3-formyl-S-methyl-L-cysteinyl-glycyl-L-leucyl-methyloxirane]	
